Assay results as given in patent US8580977B2 (priority 2010, dated 2013).

Experiments:
PP1 = conditions: literature; cited from earlier work
PP2A = conditions: literature; cited from earlier work
PP-1 [1] = test system: T1, PP-1; test: PP inhibition assay, PP-1; type: biochemical; conditions: for PP-1 inhibition relative to TTN: less efficient / worse than TTN; for IC50: read-out: in vitro inhibition (IC50) against PP-1
T1 construct: other: less efficient / worse than TTN
Experimental: (§1) IR spectra were measured on a Bruker EQUINOX 55/S FT-IR/NIR spectrophotometer (Ettlingen, DE). Optical rotations were determined on a Perkin-Elmer 241 instrument at the sodium D line (589 nm). High-resolution mass spectrometry (HRMS) analyses were acquired on an IonSpec HiRes MALDI FT mass spectrometer (Lake Forest, Calif.) for […] or on an Agilent 1100 series LC/MSD Trap SL for HRESIMS (Santa Clara, Calif.). NMR data were recorded on a Varian Unity Inova 400 or 500 MHz NMR spectrometer (Varian, Inc., Palo Alto, Calif.). ^1H and ^13C NMR chemical shifts were referenced to residual solvent signals: δH 7.26 ppm and […] for CDCl3. ^1H-^1H COSY, HMQC, HMBC, HETLOC, gHSQMBC, and gDQCOSY were performed using either standard Varian pulse sequences or literature pulse sequences (Uhrin et al., 1998; Williamson et al., 2000). High-performance liquid chromatography (HPLC) analysis was carried out on a Varian HPLC system equipped with ProStar 210 pumps and a photodiode detector. Mobile phases used were buffer A (H2O) and buffer B (CH3CN). Analytical and semipreparative HPLC columns used were Alltech Alltima C18 columns, 250×4.6 mm, 5 μm and 250×10 mm, 5 respectively. Cytotoxity assays and PP inhibition assays for TTN and related analogues were performed as previously described for compound TTM and related congeners (Ju et al., 2009). Medium components and all other chemical solvents and reagents were purchased from Fisher Scientific (Fairlawn, N.J.). Silica gel 60 RP-18 (230-400 mesh, EMD Chemical Inc., Gibbstown, N.J.) was used for standard benchtop column chromatography. Amberlite XAD-16 resin was purchased from Sigma.
(§2) Compounds 3-7 were subjected to PP inhibition and cytotoxicity assays with 1 as a control (Ju et al., 2009). Assays focused specifically on the inhibition of PP-1 and PP-2A (Table 4), while cytotoxicity assays exploited the use of selected human cancer cell lines Du145, MCF7, and HCT-115 (Table 5).

Du145, MCF7, and HCT-115 = test: cytotoxicity against selected human cancer cell lines; type: cell-based; conditions: Du145, MCF7, HCT-115
Experimental: as §1
as §2, with “5). […]” for “5).”

PP-2A = test: PP inhibition assay, PP-2A; type: biochemical; conditions: for IC50: read-out: in vitro inhibition (IC50) against PP-2A
Experimental: as §1, §2

activated T cells = conditions: literature (Shim et al., 2002); cited from earlier work
PP-1 [2] = test: PP inhibition assay, PP-1; type: biochemical; conditions: PP-1 over PP-2A
Experimental: as §1, §2

[3] = in vitro cytotoxicity assay, MCF7; type: cell-based; conditions: MCF7 cells; MCF7 human cancer cell line
Experimental: as §1, with “Medium components and all other chemical solvents and reagents were purchased from Fisher Scientific (Fairlawn, N.J.). Silica gel 60 RP-18 (230-400 mesh, EMD Chemical Inc., Gibbstown, N.J.) was used for standard benchtop column chromatography. Amberlite XAD-16 resin was purchased from Sigma.” left out

[4] = in vitro cytotoxicity assay, Du145; type: cell-based; conditions: Du145 cells; Du145 human cancer cell line
Experimental: as §1, with “Medium components and all other chemical solvents and reagents were purchased from Fisher Scientific (Fairlawn, N.J.). Silica gel 60 RP-18 (230-400 mesh, EMD Chemical Inc., Gibbstown, N.J.) was used for standard benchtop column chromatography. Amberlite XAD-16 resin was purchased from Sigma.” left out

[5] = in vitro cytotoxicity assay, HCT-115; type: cell-based; conditions: HCT-115 cells; HCT-115 human cancer cell line
Experimental: as §1, with “Medium components and all other chemical solvents and reagents were purchased from Fisher Scientific (Fairlawn, N.J.). Silica gel 60 RP-18 (230-400 mesh, EMD Chemical Inc., Gibbstown, N.J.) was used for standard benchtop column chromatography. Amberlite XAD-16 resin was purchased from Sigma.” left out

Molecule	IC50 (PP1) [nM]	preference for PP1 inhibition relative to PP2A (PP1)	IC50 (PP2A) [nM]	PP-1 inhibition relative to TTN (PP-1 [1])	IC50 (PP-1 [1]) [nM]	cytotoxicity (in words) (Du145, MCF7, and HCT-115)	PP-2A inhibition relative to TTN (PP-2A)	IC50 (PP-2A) [nM]	T cell proliferation inhibited at concentrations lower than those needed for maximal inhibition by cyclosporine A (activated T cells) [fold]	PP-1 selectivity (PP-1 [2])	IC50 [3] [µM]	IC50 [4] [µM]	IC50 [5] [µM]
CO[C@H]([C@H](O)CC(=O)[C@@H](C)[C@@H](O)CC[C@@H](C)[C@@H]1O[C@]2(CC[C@@H](C)[C@H](CC[C@H](C)C(C)=O)O2)CC[C@@H]1C)[C@H](OC(=O)C[C@@H](O)C1=C(C)C(=O)OC1=O)C(C)C [TTM, tautomycin]	22 to 32	slight preference for PP1	22 to 32										
CCC(/C=C/C(=O)O)=C\C(O)C[C@H](C)C[C@@H](C)CC[C@H](O)[C@H](C)C(=O)C[C@@H](O)[C@H](C)[C@@H](C)OC(=O)C[C@@H](O)C1=C(C)C(=O)OC1=O (stereo partly drawn) [TTN D-2 (5)]				approximately three orders of magnitude worse	9800 ± 100	inactive	about two orders of magnitude worse	44000 ± 100					
Tautomycetin [TTN (1), reference compound]	1.6		62		15 ± 0.0008			400 ± 40	100	about 27 fold			
CCC(/C=C/C(=O)O)=C\CC[C@H](C)C[C@@H](C)CC[C@H](O)[C@H](C)C(=O)C[C@@H](O)[C@H](C)[C@@H](C)OC(=O)C[C@@H](O)C1=C(C)C(=O)OC1=O [TTN D-1 (4)]				approximately one order of magnitude	130 ± 20	inactive	about the same potency as TTN	520 ± 50					
CCC(C=CC(=O)O)=CC(O)CC(C)CC(C)CCC(O)C(C)C(=O)CC(O)C(C)C(C)OC(=O)CC(O)C1=C(C)C(=O)OC1=O [TTN D-3 (6)]				approximately one order of magnitude	210 ± 30		about the same potency as TTN	800 ± 60			11 ± 3	14 ± 3	16 ± 3
CC/C(=C\CC[C@H](C)C[C@@H](C)CC[C@H](O)[C@H](C)C(=O)C[C@@H](O)[C@H](C)[C@@H](C)OC(=O)C[C@@H](O)C1=C(C)C(=O)OC1=O)C(O)CC(=O)O (stereo partly shown) [TTN F-1 (3)]				approximately one order of magnitude	170 ± 10	inactive	about the same potency as TTN	640 ± 80					
CCC(C=CC(=O)O)=CC(=O)CC(C)CC(C)CCC(O)C(C)C(=O)CC(O)C(C)C(C)OC(=O)CC(O)C1=C(C)C(=O)OC1=O [TTN D-4 (7)]				approximately one order of magnitude			about the same potency as TTN	920 ± 40			17 ± 3	13 ± 4	18 ± 3
